≈ marks a conversion by molar mass, not a printed value. Entries after “also recorded” stand apart in the source; their conditions may differ. Where two headings read alike, the source gives them in different places.
Experiments:
[1] = target: T1, CRBN-DDB1 complex (Homo sapiens, UniProt Q96SW2); assay: CRBN/DDB1 fluorescence polarization competition assay; type: binding
T1 construct: His6-ZZ-HRV3C (N); made in house; host or cells: Sf9 insect cells (baculovirus co-infection)
Description: CRBN/DDB1 Fluorescence Polarization Assay […]
Unless otherwise stated, the aqueous assay buffer contained 0.02 M HEPES((4-(2-hydroxyethyl)-1-piperazineethanesulfonic acid)) pH 8.0, 0.15 M NaCl, 0.5 mM TCEP ((tris(2-carboxyethyl)phosphine)), 0.05% Tween 20. The assay was conducted using 384 well black plates (ProxiPlate F Plus, Perkin-Elmer, Massachusetts, USA).
Plate Reader. […] Fluorescence […]
polarization was measured in units of millipolarization (mP) and are background corrected. Data were plotted and analyzed using […]
All experiments were performed in triplicate unless otherwise stated. Values are quoted as the geometric […]
Each graph is a representative example of a single biological repeat unless otherwise stated.
CRBN/DDB1 Protein Expression & Purification
Protein expression and purification methods adapted from Lopez-Girona et al.5 Full length human CRBN (accession number NM016302) was amplified by PCR & inserted downstream of the polyhedrin promoter of a pFBDM expression vector which had been modified to introduce a N-terminal His6-ZZ-HRV3C tag. Full length human DDB1 (accession number NM001923) was amplified by PCR with primers which introduced a C-terminal StrepTag and inserted downstream of the p10 promoter of a separate pFBDM expression vector. Baculoviruses were generated according to Bac-to-Bac protocols (Invitrogen) and used to co-infect Sf9 cells grown @ 27 °C in shaker flasks using Insect-XPRESS media (Lonza). Cells were harvested 48 hours post infection and frozen. For purification, pellets were thawed & resuspended in 5 volumes of Histrap buffer A (see below) and lysed […]
Superdex 200 (HiLoad 26/600), ResourceQ (6 mL) and finally a second Superdex 200 (HiLoad 26/600) column. All columns were from GE Healthcare and all purification steps were performed @ 4 °C. HisTrap buffer A: 50mM Tris (2-Amino-2-(hydroxymethyl)propane-1,3-diol), 500mM NaCl, 0.5mM TCEP ((tris(2-carboxyethyl)phosphine), 5% glycerol, pH 8.0. HisTrap Buffer B: + 250 mM imidazole. Superdex 200 buffer: 50mM Tris, 200mM NaCl, 0.5mM TCEP, 5% glycerol, pH 8.0. Resource Q buffer A: 50mM Tris, 0.5mM TCEP, 5% Glycerol, pH8.0. Resource Q buffer B + 1M NaCl.
California, USA) to prepare CRBN/DDB1 concentrations from 0.1 to 500 nM in 10 µL final assay volume containing 5 nM FP- […]
point prior to analysis. The KD was calculated using non-linear regression and a one-site specific binding model.
Analysis of competition assay FP-probe bound fraction […]
fb=probe bound fraction, KD=probe dissociation constant, L0=probe concentration, R0=protein concentration, Ki=ligand […]
CRBN/DDB1 Competition Assay
Compounds as solutions in DMSO were dispensed using an ECHO 550 Liquid Handler (Labcyte Inc).
Tracer controls (5 nM FP-probe S18 assay buffer only) and bound tracer controls (5 nM and 80 nM CRBN/DDB1) were included on each assay plate . Plates were incubated overnight at 4 °C before warming to room temperature and fluorescence polarization measured using an EnVision plate reader (Perkin -Elmer, Massachusetts, USA). IC 50 values […]
Table S2. CRBN/DDB1 Control Compounds

[2] = target: T2, pirin protein in SK-OV-3 human ovarian cancer cells (Homo sapiens, UniProt O00625); assay: Pirin depletion in SK-OV-3 cells (immunoblot / capillary electrophoresis immunoassay); type: cell-based; conditions: SK-OV-3 cells, Figure S18
T2 construct: endogenous in cells; host or cells: SK-OV-3
T2 sequence (O00625 1-290): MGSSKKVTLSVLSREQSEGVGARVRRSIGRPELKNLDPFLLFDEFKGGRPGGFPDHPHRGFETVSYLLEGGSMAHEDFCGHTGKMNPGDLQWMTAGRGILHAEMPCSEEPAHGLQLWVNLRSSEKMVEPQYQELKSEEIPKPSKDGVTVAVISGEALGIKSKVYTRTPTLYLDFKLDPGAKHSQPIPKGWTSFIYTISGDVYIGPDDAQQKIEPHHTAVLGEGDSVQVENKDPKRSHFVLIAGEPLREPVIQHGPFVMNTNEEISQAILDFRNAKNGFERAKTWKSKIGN
Description: in vivo in athymic mice to increase its tumorigenicity and reliability as a xenograft, and used within 10 passages of banked stocks.
(§1) Prior to use, the cells were analyzed by short tandem repeat (STR) profiling. Polymorphic STR loci were amplified using a polymerase chain reaction (PCR) primer set. The PCR product (each locus being labelled with a different fluorophore) was analyzed simultaneously with size standards using automated fluorescent detection. The number of repeats at 10 different loci (as recommended by the American Type Culture Collection, ATCC) was used to define the STR profile and this was cross-referenced with online databases to confirm authenticity. […]
the ATCC reference line (LGC Promochem, UK). […]
nested PCR protocol (Venor GeM kit, Minerva Biolabs, Germany). Cells were grown in DMEM/10 % FCS, 2 mM glutamine and nonessential amino acids in 5 % CO2.
SK-OV-3 cells were treated as for each experimental condition. Cells were harvested and lysed by scraping in urea lysis buffer (20 mM HEPES pH 8.0, 9 M urea, 1 mM sodium orthovanadate, 2.5 mM sodium pyrophosphate, 1 mM β-glycerophosphate). […]
of samples was determined using a bicinchoninic acid (BCA) protein assay kit (Thermo Fisher Scientific). Western blotting was carried out as previously described.10 Pirin and GAPDH antibodies were obtained from Abcam (ab157212) and Merck […]
Samples were treated, harvested and lysed as described above. A total of 5 μL of 0.2 mg/mL protein was loaded into plates and capillary western analysis was carried out according to the manufacturer’s instructions (ProteinSimple WES). The data was analyzed with the Compass software (ProteinSimple).
Sigma-Aldrich and Cell Signaling Technology, respectively.
10 Sharp SY, Boxall K, Rowlands M, Prodromou C, Roe SM, Maloney A, Powers M, Clarke PA, Box G, Sanderson S, Patterson L, Matthews TP, Cheung KM, Ball K, Hayes A, Raynaud F, Marais R, Pearl L, Eccles S, Aherne W, McDonald E, Workman P. In vitro biological characterization of a novel, synthetic diaryl pyrazole resorcinol class of heat shock protein 90 inhibitors.

[3] = Chemical stability as solid and in DMSO stock solution; type: physicochemical; conditions: room temperature, data not shown
[4] = PDP aqueous stability protocol; conditions: 37 °C, pH 7.4 phosphate buffer
[5] = LogD7.4 determination by RP-HPLC; conditions: pH 7.4
[6] = Kinetic solubility determination by RP-HPLC; conditions: PBS, pH 7.4, aqueous buffer, kinetic from dmso stock
[7] = target: T3, pirin (Homo sapiens, UniProt O00625); assay: Pirin SPR (surface plasmon resonance) binding
T3 sequence (O00625 1-290): T2 sequence (O00625 1-290)

[8] = target: T4, CRBN (Homo sapiens, UniProt Q96SW2); assay: Rescue of PDP 16 pirin depletion by CRBN-binding competitive ligand in SK-OV-3 cells; type: cell-based; conditions: 10 μM, 4 h pretreatment, then PDP 16 (5 nM) 2 h
T4 construct: endogenous in cells; host or cells: SK-OV-3
Description: Cell line: The human ovarian carcinoma cell line (SK-OV-3) was obtained from an ICR collaborator in the 1990s. It was passaged in vivo in athymic mice to increase its tumorigenicity and reliability as a xenograft, and used within 10 passages of banked stocks.
as §1
the ATCC reference line (LGC Promochem, UK). The cells were free of mycoplasma contamination as determined by a sensitive nested PCR protocol (Venor GeM kit, Minerva Biolabs, Germany). […]
Samples were sonicated and centrifuged at 20,000 x g for 15 min and the protein extract (supernatant) collected. The total protein of samples was determined using a bicinchoninic acid (BCA) protein assay kit (Thermo Fisher Scientific). […]
Samples were treated, harvested and lysed as described above. […] The data was analyzed with the Compass software (ProteinSimple). […]

IC50 ([1]; CRBN/DDB1 FP IC50, single repeat N=2, best-fit value, variable slope four parameters) [µM]	IC50 ([1]; best-fit value, variable slope four parameters, read-out: CRBN/DDB1 FP IC50, single repeat N=1) [µM]	IC50 ([1]; best-fit value, variable slope four parameters, read-out: CRBN/DDB1 FP IC50, single repeat N=3) [µM]	Ki ([1]; calculated from geometric mean CRBN-DDB1 IC50 and FP-probe KD) [µM]	IC50 ([1]; column statistics, read-out: CRBN/DDB1 FP pIC50, mean of 3 values (unrounded) (converted)) [µM]	IC50 ([1]; displacement of thalidomide derived fluorescent probe, geometric mean n = 3, read-out: CRBN/DDB1 FP IC50) [µM]	IC50 ([1]; n = 3 independent biological repeats, read-out: CRBN/DDB1 FP pIC50±SEM (converted)) [µM]	Compound exposure needed before pirin degradation was observed [2]	Time stable as a solid and in DMSO stock solution [3] [month]	Half-life (aqueous stability) [4] [h]	half-life at 100 µM ([4]; phosphate buffer (PBS), pH 7.4, Half-life (aqueous stability)) [h]	chromatographic logD [5]	solubility kinetic at 120 min [6] [µM]	Kd ([7]; Pirin SPR KD, equilibrium analysis, one site specific binding model, geometric mean n = 3) [µM]	Kd ([7]; Pirin SPR KD, representative single repeat, best-fit value, one site specific binding) [µM]	Kd ([7]; Pirin SPR pKD±SEM, n = 3 independent biological repeats) [µM]	Measured Rmax/Theoretical Rmax ([7]; SPR)	Compound	Depletion of intracellular pirin expression ([2]; 3.0 μM total concentration, up to 48 h)	Rescue of pirin depletion by thalidomide pretreatment [8]
0.331	0.568	0.377	0.095	0.414	0.41	0.417	at least 24 h	> 1	~4	4.1	1.9	5 (≈ 4.85 µg/mL)	0.23	0.224	0.234	0.40	O=C(COc1cccc2c1C(=O)N(C1CCC(=O)NC1=O)C2=O)NCCOCCC(=O)N1CCN(Cc2ccc3cc(C(=O)Nc4cc(NC(=O)c5ccc6c(c5)OCCO6)ccc4F)ccc3n2)CC1 (stereo not shown) [PDP 10, N-(5-(2,3-Dihydrobenzo[b][1,4]dioxine-6-carboxamido)-2-fluorophenyl)-2-((4-(3-(2-(2-((2-(2,6-dioxopiperidin-3-yl)-1,3-dioxoisoindolin-4-yl)oxy)acetamido)ethoxy)propanoyl)piperazin-1-yl)methyl)quinoline-6-carboxamide]	clear and time-dependent depletion of intracellular pirin expression	
																	O=C1CCC(N2C(=O)c3ccccc3C2=O)C(=O)N1 (stereo not shown) [Thalidomide]		rescues pirin protein depletion; also recorded: successfully rescued pirin depletion

Source: publication PMC5815658 (Journal of Medicinal Chemistry, 2017)
